Measured values published in paper PMC9257752, “Intestinal Absorption of FITC-Dextrans and Macromolecular Model Drugs in the Rat Intestinal Instillation Model” (Molecular Pharmaceutics, 2022).
Numbered stars: 1 amine (or outer) side, 2 acyl side, 3 side chain; on linkers, the order of the positions; unused ones are H or OH. Square brackets hold non-standard residues; d marks the D form. Side chains are listed from the residue outwards. Peptide text beside a SMILES is read from it. * marks the point of attachment. γGlu = O=C(O)[C@H](CCC(=O)[*:2])N[*:1]; αMeF = C[C@](N)(Cc1ccccc1)C(=O)O; αMeK = C[C@](N)(CCCCN)C(=O)O; Lauroyl = CCCCCCCCCCCC(=O)*; αMeS = C[C@](N)(CO)C(=O)O; AEEA = NCCOCCOCC(=O)O; Aib = CC(C)(N)C(=O)O

What was measured:
pancreatin = tested on: pancreatin; set-up: method as in PMID 34795324; details: simulated intestinal fluid containing pancreatin, over a 60 min period; cited from earlier work
[1] = dogs; cited from earlier work
Excerpt: MEDI7219 is a glucagon-like peptide 1 (GLP-1) receptor agonist drug candidate developed by AstraZeneca.[10] The peptide was designed for oral delivery and has natural amino acid and α-methyl amino acid substitutions to protect against peptidasesin the gastrointestinal tract. The peptide backbone has two lipid side chains that can bind to plasma proteins, thereby prolonging the circulation half-life of the peptide. […] The calculated pI is 3.8, giving the peptide a charge of −6.2 at pH 7.4. The molecular weight of MEDI7219 is 4353, ...

[2] = Rat intestinal instillation model (intraduodenal administration, plasma pharmacokinetics, deconvolution); details: for Proportion of total absorption (120 min) occurring in interval 0–20 min / Proportion of total absorption (120 min) occurring in interval 20–40 min / Proportion of total absorption (120 min) occurring in interval 40–60 min / Proportion of total absorption (120 min) occurring in interval 60–80 min / Proportion of total absorption (120 min) occurring in interval 80–100 min / Proportion of total absorption (120 min) occurring in interval 100–120 min: average ± SD; for Cmax / Tmax: male, Wistar Han, rat, plasma; for Cmax: pH 6.5, Cmax, MEDI7219 1.0 mg, PEP12210 5.0 mg, mean ± SD (CV%); for Tmax: pH 6.5, Tmax
Description: Blank FaSSIF was prepared by dissolving 2.22 g of maleic acid, 1.39 g of sodium hydroxide, and 4.01 g of sodium chloride in Milli-Q water and adjusting the pH to 6.5 and volume to 1000 mL. C10 solutions were prepared at 50 or 300 mM C10 in blank FaSSIF and pH-adjusted to 6.5 by the addition of 2 M HCl. Blank FaSSIF solutions containing 0–300 mM C10 were stored at room temperature (RT) and used within 30 days. The model compounds were dissolved in blank FaSSIF with or without C10 the day before the absorption study and stored at +4 °C overnight. […] All IV formulations were sterile filtered into autoclaved injection vials and stored at +4 °C.
Upon arrival at the animal facility, the rats underwent an acclimatization period of 5 days with food and water ad libitum.
Briefly, anesthesia was induced with isoflurane after which the animal was moved to a preheated preparatory table. Fur was shaved from the throat to the lower abdomen and the shaved area was disinfected with a medicinal sponge containing chlorhexidine. The rat was draped in plastic foil and transferred to a preheated operating table where anesthesia was continued throughout the entire study using 3% isoflurane carried in an air/oxygen mixture. A polyurethane catheter was placed in the left carotid artery to allow for blood sampling, as well as blood pressure and heart rate monitoring. A midline incision was made in the abdomen, the duodenum was located and a catheter was placed in the common bile duct to avoid bile secretion into the duodenum. […] The stomach was punctured approximately 1 cm proximal to the pyloric sphincter with a 20G needle. A soft polyurethane catheter with a rounded tip was inserted into the small intestine via the gastric incision so that the tip of the catheter was positioned approximately 4 cm distal to the pylorus. The intestinal catheter was secured to the stomach with a suture and a ligature was placed at the pylorus to prevent backflow of formulation into the stomach and transit of gastric content into the duodenum. A thermometer was placed in the abdominal cavity and the abdomen was closed with stitches. A heating lamp coupled to the thermometer via a thermostat maintained the animal at 37 °C. The surgery was followed by a 30 min recovery period to allow the animal to regain normal temperature and blood pressure.
The liquid formulations were equilibrated to room temperature under magnetic stirring for 2 h prior to administration. Intestinal bolus administrations were performed over approximately 5 s via the intestinal catheter. […] The C10 doses were 7.8 mg for administrations with 50 mM C10 and 47 mg for 300 mM C10. Five to six replicates were performed for each administration group. […] Blood plasma was separated by immediately centrifuging the blood samples at +4 °C and 10 000g for 4 min. Plasma samples were transferred to new tubes and stored at −80 °C until analysis.
The animals receiving IV administration were handled and prepared in the same way as the animals receiving intestinal administration up until the placement of the carotid catheter. As no abdominal surgery was performed, a thermometer was introduced rectally.

[3] = 0 mM C10, numerical deconvolution, n = 5–6 (PEP12210 n = 2)
[4] = 50 mM C10, numerical deconvolution, n = 5–6
[5] = 300 mM C10, numerical deconvolution, n = 5–6

Proportion of total absorption (120 min) occurring in interval 0–20 min [2, 3]: 11% ± 2.8%
Proportion of total absorption (120 min) occurring in interval 20–40 min [2, 3]: 12% ± 2.9%
Proportion of total absorption (120 min) occurring in interval 40–60 min [2, 3]: 22% ± 2.5%
Proportion of total absorption (120 min) occurring in interval 60–80 min [2, 3]: 15% ± 1.2%
Proportion of total absorption (120 min) occurring in interval 80–100 min [2, 3]: 18% ± 2.5%
Proportion of total absorption (120 min) occurring in interval 100–120 min [2, 3]: 22% ± 4.9%
Proportion of total absorption (120 min) occurring in interval 0–20 min [2, 4]: 72% ± 3.6%
Proportion of total absorption (120 min) occurring in interval 20–40 min [2, 4]: 16% ± 2.6%
Proportion of total absorption (120 min) occurring in interval 40–60 min [2, 4]: 4.5% ± 1.7%
Proportion of total absorption (120 min) occurring in interval 60–80 min [2, 4]: 1.8% ± 5.5%
Proportion of total absorption (120 min) occurring in interval 80–100 min [2, 4]: 2.1% ± 2.6%
Proportion of total absorption (120 min) occurring in interval 100–120 min [2, 4]: 3.6% ± 4.2%
Proportion of total absorption (120 min) occurring in interval 0–20 min [2, 5]: 25% ± 5.1%
Proportion of total absorption (120 min) occurring in interval 20–40 min [2, 5]: 20% ± 2.6%
Proportion of total absorption (120 min) occurring in interval 40–60 min [2, 5]: 24% ± 2.3%
Proportion of total absorption (120 min) occurring in interval 60–80 min [2, 5]: 13% ± 3.5%
Proportion of total absorption (120 min) occurring in interval 80–100 min [2, 5]: 10% ± 3.1%
Proportion of total absorption (120 min) occurring in interval 100–120 min [2, 5]: 7.8% ± 4.0%
Cmax ([2]; 50 mM C10, blank FaSSIF pH 6.5, dose FD10 10 mg, n = 5–6): 440 nM
Cmax ([2]; 300 mM C10, blank FaSSIF pH 6.5, dose FD10 10 mg, n = 5–6): 1400 nM
Tmax ([2]; 0 mM C10, blank FaSSIF pH 6.5, median (min–max), n = 5–6 (PEP12210 n = 2)): 2 h
Tmax ([2]; 50 mM C10, blank FaSSIF pH 6.5, median (min–max), n = 5–6): 0.333 h
Tmax ([2]; 300 mM C10, blank FaSSIF pH 6.5, median (min–max), n = 5–6): 1.5 h
SMILES: CCCCCCCCCCCC(=O)N[C@@H](CCC(=O)NCCOCCOCC(=O)NCCOCCOCC(=O)NCCCC[C@H](NC(=O)[C@H](C)NC(=O)[C@@H](NC(=O)[C@](C)(Cc1ccccc1)NC(=O)[C@H](CCC(=O)O)NC(=O)[C@](C)(CCCCN)NC(=O)[C@H](C)NC(=O)[C@H](C)NC(=O)[C@H](CCC(=O)O)NC(=O)CNC(=O)[C@H](CCC(=O)O)NC(=O)[C@H](CC(C)C)NC(=O)[C@H](CCCCNC(=O)COCCOCCNC(=O)COCCOCCNC(=O)CC[C@H](NC(=O)CCCCCCCCCCC)C(=O)O)NC(=O)[C@H](CO)NC(=O)[C@](C)(CO)NC(=O)[C@@H](NC(=O)[C@H](CC(=O)O)NC(=O)[C@H](CO)NC(=O)[C@@H](NC(=O)[C@](C)(Cc1ccccc1)NC(=O)[C@H](CO)NC(=O)CNC(=O)[C@H](CCC(=O)O)NC(=O)C(C)(C)NC(=O)[C@@H](N)Cc1c[nH]cn1)[C@@H](C)O)C(C)C)[C@@H](C)CC)C(=O)N[C@H](C(=O)N[C@H](C(=O)N[C@@H](CCC(=O)O)C(=O)NCC(=O)NCC(N)=O)C(C)C)C(C)C)C(=O)O [MEDI7219] (H-H[Aib]EGS[αMeF]TSDV[αMeS]SK([AEEA-AEEA-γGlu-Lauroyl])LEGEAA[αMeK]E[αMeF]IAK([AEEA-AEEA-γGlu-Lauroyl])VVEGG-NH2)
Proportion of peptide remaining intact (pancreatin): 90%
Half-life following oral administration [1]: 9.8 h
